Values quoted from earlier work in patent US20230107398A1, “IMMEDIATE RELEASE FORMULATIONS OF d-LYSERGIC ACID DI[…] THERAPEUTIC APPLICATIONS” (Mind Medicine, Inc., priority 2021, published 2023).

Conditions: room temperature

Compound: CCN(CC)C(=O)[C@@H]1C=C2c3cccc4[nH]cc(c34)C[C@H]2N(C)C1 [LSD, 9,10-didehydro-N,N-diethyl-6-methylergoline-8β-carboxamide]
- Stability in oral solution: not stable
